Data set [1] can be described thus: In vitro cytotoxicity, MTT cell viability assay in HepG2 cells. It is filed as cell-based. The conditions noted are these: human, Cytotoxicity CC50. In outline:
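CC50 values reflect loss of HepG2 viability after a 7-day exposure at 37 °C, 5% CO2. After 3-4 h with MTT, solubilized formazan was quantified at 492 nm relative to vehicle wells.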

The test system of data set [2] is HBV replication in HepAD38 cells. Description: Anti-HBV activity in HepAD38 cells, extracellular HBV DNA by QPCR. Type of data set: cell-based, HBV (genotype D, serotype ayw). To be noted: Hepatitis B virus, HePAD38, 168 h, read-out: Anti-HBV EC50, HepAD38 cells, extracellular HBV DNA by QPCR, 7 days of incubation. In outline:
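HepAD38 cells (HepG2 with tet-repressible HBV genotype D genome) seeded overnight, tetracycline removed, then treated 7 days with compounds (half-log dilutions, 30 μM–10 nM; 1:200 from DMSO). Supernatant HBV DNA quantified by QPCR against standard curve; % inhibition vs vehicle, EC50 by 4-parameter fit.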

Structures are written as SMILES. Where only a bound is given, the exact number is not on record here.

`Cc1cc(NC(=O)c2ccc(F)c(C(F)(F)C(=O)N3[C@@H]4COC[C@H]3CN(S(C)(=O)=O)C4)c2)ccc1F` [Example 211, 3-(1,1-difluoro-2-((1R,5S)-7-(methylsulfonyl)-3-oxa-7,9-diazabicyclo[3.3.1]nonan-9-yl)-2-oxoethyl)-4-fluoro-N-(4-fluoro-3-methylphenyl)benzamide]: in data set [1], the half-maximal cytotoxic concentration (CC50) at 7 days was more than 30 µM. In addition, the EC50 in data set [2] is less than 5 µM.

`Cc1cc(NC(=O)c2ccc(F)c(C(F)(F)C(=O)N3[C@@H]4CCC[C@H]3C[C@@H](NS(C)(=O)=O)C4)c2)ccc1F` [Example 336, 3-(1,1-difluoro-2-((1R,3r,5S)-3-(methylsulfonamido)-9-azabicyclo[3.3.1]nonan-9-yl)-2-oxoethyl)-4-fluoro-N-(4-fluoro-3-methylphenyl)benzamide] gave a CC50 at 7 days in data set [1] of more than 30 µM. Moreover, the EC50 in data set [2] was less than 5 µM.

The compound `Cc1cc(NC(=O)c2ccc(F)c(C(F)(F)C(=O)NC34CC5CC(CC(O)(C5)C3)C4)c2)ccc1F` [Example 272, 3-(1,1-difluoro-2-(((1r,3s,5R,7S)-3-hydroxyadamantan-1-yl)amino)-2-oxoethyl)-4-fluoro-N-(4-fluoro-3-methylphenyl)benzamide] returned a CC50 at 7 days in data set [1] of 5 to 30 µM. Besides, the EC50 in data set [2] lay within 5 to 30 µM.

Turning to `Cc1cc(NC(=O)c2ccc(F)c(C(F)(F)C(=O)N3C4CCCC3c3sc(N)nc3C4)c2)ccc1F` (stereo not shown) [Example 342, 3-(2-(2-amino-4,5,6,7,8,9-hexahydro-5,9-epiminocycloocta[d]thiazol-10-yl)-1,1-difluoro-2-oxoethyl)-4-fluoro-N-(4-fluoro-3-methylphenyl)benzamide], the CC50 at 7 days in data set [1] was more than 30 µM. In addition, the EC50 in data set [2] was less than 5 µM.

For the compound `Cc1cc(NC(=O)c2ccc(F)c(C(F)(F)C(=O)N3C[C@H]4CC[C@@H](C3)C4=O)c2)ccc1F` [Example 280, 3-(1,1-difluoro-2-oxo-2-((1R,5S)-8-oxo-3-azabicyclo[3.2.1]octan-3-yl)ethyl)-4-fluoro-N-(4-fluoro-3-methylphenyl)benzamide], the CC50 at 7 days in data set [1] was 5 to 30 µM. In addition, the EC50 in data set [2] was less than 5 µM.

The compound `O=C(Nc1ccc(F)c(F)c1)c1ccc(F)c(C(O)C(=O)N2CCC(O)CC2)c1` (stereo not shown) [Example 120, N-(3,4-difluorophenyl)-4-fluoro-3-(1-hydroxy-2-(4-hydroxypiperidin-1-yl)-2-oxoethyl)benzamide] came in with a CC50 at 7 days in data set [1] of more than 30 µM. Further, in data set [2], the EC50 is more than 30 µM.

`CCC(C)(C)NC(=O)C(F)(F)c1cc(C(=O)Nc2ccc(F)c(F)c2)ccc1F` [Example 19, 3-(1,1-difluoro-2-oxo-2-(tert-pentylamino)ethyl)-N-(3,4-difluorophenyl)-4-fluorobenzamide] came in with a CC50 at 7 days in data set [1] of 5 to 30 µM. Further, the EC50 in data set [2] is less than 5 µM.

For the compound `Cc1cc(NC(=O)c2c(C)c(C(F)(F)C(=O)NC(C)(C)C)n(C)c2C)ccc1F` [Example 107, 5-(2-(tert-butylamino)-1,1-difluoro-2-oxoethyl)-N-(4-fluoro-3-methylphenyl)-1,2,4-trimethyl-1H-pyrrole-3-carboxamide], the CC50 at 7 days in data set [1] is more than 30 µM. Moreover, the EC50 in data set [2] was less than 5 µM.

The compound `Cc1cc(NC(=O)c2cc(C(F)(F)C(=O)NC(C)(C)C)n(C)n2)ccc1F` [Example 165, 5-(2-(tert-butylamino)-1,1-difluoro-2-oxoethyl)-N-(4-fluoro-3-methylphenyl)-1-methyl-1H-pyrazole-3-carboxamide] returned a CC50 at 7 days in data set [1] of more than 30 µM. Besides, the EC50 in data set [2] fell in the range of 5 to 30 µM.

Compound `Cc1cc(NC(=O)c2ccc(F)c(C(F)(F)C(=O)N3CCC(C(N)=O)CC3)c2)ccc1F` [Example 164, 1-(2,2-difluoro-2-(2-fluoro-5-((4-fluoro-3-methylphenyl)carbamoyl)phenyl)acetyl)piperidine-4-carboxamide] had a CC50 at 7 days in data set [1] of more than 30 µM. For the same compound, in data set [2], the EC50 is less than 5 µM.

In turn, `O=C(Nc1ccc(F)cc1Cl)c1ccc(Cl)c(C(F)(F)C(=O)N2CCC(O)CC2)c1` [Example 41, 4-chloro-N-(2-chloro-4-fluorophenyl)-3-(1,1-difluoro-2-(4-hydroxypiperidin-1-yl)-2-oxoethyl)benzamide] showed a CC50 at 7 days in data set [1] of more than 30 µM. For the same compound, the EC50 in data set [2] lay within 5 to 30 µM.

In data set [1], `O=C(Nc1ccc(F)c(Br)c1)c1ccc(F)c(C(F)(F)C(=O)N2[C@@H]3CC[C@H]2C[C@@H](O)C3)c1` [Example 176, N-(3-bromo-4-fluorophenyl)-3-(1,1-difluoro-2-((1R,3r,5S)-3-hydroxy-8-azabicyclo[3.2.1]octan-8-yl)-2-oxoethyl)-4-fluorobenzamide] came in with a CC50 at 7 days of 5 to 30 µM. Besides, in data set [2], the EC50 was less than 5 µM.

On to `Cc1cc(NC(=O)c2ccc(F)c(C(F)(F)C(=O)N3C4CC[C@@H]3C[C@@H](C(=O)O)C4)c2)ccc1F` [Example 259, (1R,3s,5S)-8-(2,2-difluoro-2-(2-fluoro-5-((4-fluoro-3-methylphenyl)carbamoyl)phenyl)acetyl)-8-azabicyclo[3.2.1]octane-3-carboxylic acid], for which the CC50 at 7 days in data set [1] is more than 30 µM. Besides, in data set [2], the concentration giving a half-maximal response (EC50) is less than 5 µM.

Regarding `Cc1cc(NC(=O)c2ccc(F)c(C(F)(F)C(=O)NCB(O)O)c2)ccc1F` [Example 156, ((2,2-difluoro-2-(2-fluoro-5-((4-fluoro-3-methylphenyl)carbamoyl)phenyl)acetamido)methyl)boronic acid], the CC50 at 7 days in data set [1] lay within 5 to 30 µM. Also, the EC50 in data set [2] was 5 to 30 µM.

Regarding `Cc1cc(NC(=O)c2ccc(F)c(C(F)(F)C(=O)NC34CCC(NC(=O)OC(C)(C)C)(CC3)C4)c2)ccc1F` [Example 252, tert-butyl (4-(2,2-difluoro-2-(2-fluoro-5-((4-fluoro-3-methylphenyl)carbamoyl)phenyl)acetamido)bicyclo[2.2.1]heptan-1-yl)carbamate], the CC50 at 7 days in data set [1] is less than 5 µM. For the same compound, in data set [2], the EC50 lay within 5 to 30 µM.

Take `Cc1cc(NC(=O)c2ccc(F)c(C(F)(F)C(=O)N3CCn4nncc4C3)c2)ccc1F` [Example 297, 3-(2-(6,7-dihydro-[1,2,3]triazolo[1,5-a]pyrazin-5(4H)-yl)-1,1-difluoro-2-oxoethyl)-4-fluoro-N-(4-fluoro-3-methylphenyl)benzamide]: the CC50 at 7 days in data set [1] is 5 to 30 µM. The EC50 in data set [2] was less than 5 µM.

The compound `Cn1cc(NC(=O)c2ccc(F)c(C(F)(F)C(=O)N3CCC(O)CC3)c2)cn1` [Example 89, 3-(1,1-difluoro-2-(4-hydroxypiperidin-1-yl)-2-oxoethyl)-4-fluoro-N-(1-methyl-1H-pyrazol-4-yl)benzamide] yielded a CC50 at 7 days in data set [1] of 5 to 30 µM. Moreover, the EC50 in data set [2] was more than 30 µM.

The compound `O=C(Nc1ccc(F)c(Cl)c1)c1ccc(F)c(C(F)(F)C(=O)N2[C@@H]3CC[C@H]2C[C@@H](O)C3)c1` [Example 170, N-(3-chloro-4-fluorophenyl)-3-(1,1-difluoro-2-((1R,3r,5S)-3-hydroxy-8-azabicyclo[3.2.1]octan-8-yl)-2-oxoethyl)-4-fluorobenzamide] registered a CC50 at 7 days in data set [1] of 5 to 30 µM. Moreover, in data set [2], the EC50 was less than 5 µM.

In the case of `Cc1cc(NC(=O)c2ccc(C(F)(F)C(=O)N3CCC(O)CC3)s2)ccc1F` [Example 63, 5-(1,1-difluoro-2-(4-hydroxypiperidin-1-yl)-2-oxoethyl)-N-(4-fluoro-3-methylphenyl)thiophene-2-carboxamide], the CC50 at 7 days in data set [1] was 5 to 30 µM. Also, in data set [2], the EC50 was more than 30 µM.

In data set [1], `Cc1cc(NC(=O)c2cc(C(F)(F)C(=O)NC(C)(C)C)n(C)c2C)ccc1F` [Example 106, 5-(2-(tert-butylamino)-1,1-difluoro-2-oxoethyl)-N-(4-fluoro-3-methylphenyl)-1,2-dimethyl-1H-pyrrole-3-carboxamide] had a CC50 at 7 days of 5 to 30 µM. Besides, the EC50 in data set [2] is less than 5 µM.

In data set [1], `O=C(Nc1ccc(F)c(F)c1)c1ccc(F)c(C(F)(F)C(=O)Nc2ccncc2)c1` [Example 50, 3-(1,1-difluoro-2-oxo-2-(pyridin-4-ylamino)ethyl)-N-(3,4-difluorophenyl)-4-fluorobenzamide] came in with a CC50 at 7 days of 5 to 30 µM. In data set [2], the EC50 was 5 to 30 µM.

Take `Cc1cc(NC(=O)c2ccc(F)c(C(F)(F)C(=O)N3CCC(NS(C)(=O)=O)CC3)c2)ccc1F` [Example 231, 3-(1,1-difluoro-2-(4-(methylsulfonamido)piperidin-1-yl)-2-oxoethyl)-4-fluoro-N-(4-fluoro-3-methylphenyl)benzamide]: in data set [1], the CC50 at 7 days is 5 to 30 µM. Moreover, the EC50 in data set [2] is less than 5 µM.

In the case of `O=C(Nc1ccc(F)c(F)c1)c1ccc(F)c(C(F)(F)C(=O)NCc2ccc(O)cc2)c1` [Example 65, 3-(1,1-difluoro-2-((4-hydroxybenzyl)amino)-2-oxoethyl)-N-(3,4-difluorophenyl)-4-fluorobenzamide], in data set [1], the CC50 at 7 days lay within 5 to 30 µM. The EC50 in data set [2] was 5 to 30 µM.

In the case of `Cc1cc(NC(=O)c2ccc(F)c(C(F)(F)C(=O)NC34CCC(N)(CC3)C4)c2)ccc1F` [Example 253, 3-(2-((4-aminobicyclo[2.2.1]heptan-1-yl)amino)-1,1-difluoro-2-oxoethyl)-4-fluoro-N-(4-fluoro-3-methylphenyl)benzamide], the CC50 at 7 days in data set [1] is more than 30 µM. Besides, the EC50 in data set [2] is less than 5 µM.

In turn, `O=C(Nc1ccnc(Cl)c1)c1ccc(F)c(C(F)(F)C(=O)N2CCC(O)CC2)c1` [Example 167, N-(2-chloropyridin-4-yl)-3-(1,1-difluoro-2-(4-hydroxypiperidin-1-yl)-2-oxoethyl)-4-fluorobenzamide] came in with a CC50 at 7 days in data set [1] of 5 to 30 µM. Moreover, the EC50 in data set [2] fell in the range of 5 to 30 µM.

In data set [1], `Cc1cc(NC(=O)c2ccc(F)c(C(F)(F)C(=O)N3C4CC[C@@H]3C[C@@H](O)C4)c2)cc(F)c1F` [Example 246, 3-(1,1-difluoro-2-((1R,3s,5S)-3-hydroxy-8-azabicyclo[3.2.1]octan-8-yl)-2-oxoethyl)-N-(3,4-difluoro-5-methylphenyl)-4-fluorobenzamide] returned a CC50 at 7 days of 5 to 30 µM. Besides, the EC50 in data set [2] was less than 5 µM.

Values taken from patent US11247965B2 (VenatoRx Pharmaceuticals, Inc., priority 2017, dated 2022).
